Results from article PMC6199744, “Development of Chemical Proteomics for the Folateome and Analysis of the Kinetoplastid Folateome” (ACS Infectious Diseases, 2018).
Like-named read-outs stand apart in the source and are kept apart here.

Key:
Format in all cases: binding
[1] = target: T1, HeLa cell extract proteins (Homo sapiens, UniProt P14174)
T1 construct: endogenous in cells; host or cells: HeLa cell extract
T1 sequence (P14174 1-115): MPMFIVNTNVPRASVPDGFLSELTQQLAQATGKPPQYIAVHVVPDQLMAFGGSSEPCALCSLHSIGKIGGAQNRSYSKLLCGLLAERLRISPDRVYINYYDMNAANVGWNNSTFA

[2] = target: T2, HeLa cell extract proteins (Homo sapiens, UniProt P35613)
T2 construct: endogenous in cells; host or cells: HeLa cell extract
T2 sequence (P35613 22-385): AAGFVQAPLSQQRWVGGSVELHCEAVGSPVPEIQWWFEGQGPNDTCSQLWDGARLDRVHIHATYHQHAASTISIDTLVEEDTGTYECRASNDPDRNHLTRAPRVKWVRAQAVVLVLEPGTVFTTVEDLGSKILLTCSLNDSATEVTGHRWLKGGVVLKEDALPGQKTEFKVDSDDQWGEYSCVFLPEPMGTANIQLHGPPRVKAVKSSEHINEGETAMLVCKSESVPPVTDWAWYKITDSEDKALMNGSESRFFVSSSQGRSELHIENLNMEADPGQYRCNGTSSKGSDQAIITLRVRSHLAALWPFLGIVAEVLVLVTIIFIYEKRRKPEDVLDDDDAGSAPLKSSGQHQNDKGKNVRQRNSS

[3] = target: T3, HeLa cell extract proteins (Homo sapiens, UniProt P13804)
T3 construct: endogenous in cells; host or cells: HeLa cell extract
T3 sequence (P13804 20-333): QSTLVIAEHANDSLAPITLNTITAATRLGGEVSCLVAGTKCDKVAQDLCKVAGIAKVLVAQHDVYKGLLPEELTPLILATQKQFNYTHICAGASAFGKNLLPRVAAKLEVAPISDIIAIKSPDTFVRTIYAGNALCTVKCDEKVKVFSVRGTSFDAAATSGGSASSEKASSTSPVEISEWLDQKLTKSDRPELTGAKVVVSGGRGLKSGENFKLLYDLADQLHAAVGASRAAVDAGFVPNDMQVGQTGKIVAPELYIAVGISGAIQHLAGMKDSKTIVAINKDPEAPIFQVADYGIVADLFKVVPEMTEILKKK

[4] = target: T4, HeLa cell extract proteins (Homo sapiens, UniProt P52298)
T4 construct: endogenous in cells; host or cells: HeLa cell extract
T4 sequence (P52298 1-156): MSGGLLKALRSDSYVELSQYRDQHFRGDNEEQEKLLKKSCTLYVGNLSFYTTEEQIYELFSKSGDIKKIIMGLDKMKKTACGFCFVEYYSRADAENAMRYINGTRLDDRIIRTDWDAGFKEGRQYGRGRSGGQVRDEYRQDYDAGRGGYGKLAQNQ

[5] = target: T5, HeLa cell extract proteins (Homo sapiens, UniProt O43819)
T5 construct: endogenous in cells; host or cells: HeLa cell extract
T5 sequence (O43819 42-266): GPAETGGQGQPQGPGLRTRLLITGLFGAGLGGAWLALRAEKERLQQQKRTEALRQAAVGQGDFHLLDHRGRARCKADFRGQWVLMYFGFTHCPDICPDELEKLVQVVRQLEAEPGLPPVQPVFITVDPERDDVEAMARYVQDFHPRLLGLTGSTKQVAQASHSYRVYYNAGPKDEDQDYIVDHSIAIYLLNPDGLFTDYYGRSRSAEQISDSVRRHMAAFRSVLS

[6] = target: T6, HeLa cell extract proteins (Homo sapiens, UniProt P30048); conditions: protein PRDX3; HeLa
T6 construct: endogenous in cells; host or cells: HeLa cell extract
T6 sequence (P30048 62-256): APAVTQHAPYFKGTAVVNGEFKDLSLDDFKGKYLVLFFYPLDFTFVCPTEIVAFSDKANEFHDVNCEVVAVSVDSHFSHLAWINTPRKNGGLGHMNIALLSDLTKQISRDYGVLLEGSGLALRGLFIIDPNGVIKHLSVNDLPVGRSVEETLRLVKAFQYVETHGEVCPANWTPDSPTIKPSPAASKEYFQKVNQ

[7] = target: T7, HeLa cell extract proteins (Homo sapiens, UniProt P41250); conditions: protein GARS; HeLa
T7 construct: endogenous in cells; host or cells: HeLa cell extract
T7 sequence (P41250 37-739): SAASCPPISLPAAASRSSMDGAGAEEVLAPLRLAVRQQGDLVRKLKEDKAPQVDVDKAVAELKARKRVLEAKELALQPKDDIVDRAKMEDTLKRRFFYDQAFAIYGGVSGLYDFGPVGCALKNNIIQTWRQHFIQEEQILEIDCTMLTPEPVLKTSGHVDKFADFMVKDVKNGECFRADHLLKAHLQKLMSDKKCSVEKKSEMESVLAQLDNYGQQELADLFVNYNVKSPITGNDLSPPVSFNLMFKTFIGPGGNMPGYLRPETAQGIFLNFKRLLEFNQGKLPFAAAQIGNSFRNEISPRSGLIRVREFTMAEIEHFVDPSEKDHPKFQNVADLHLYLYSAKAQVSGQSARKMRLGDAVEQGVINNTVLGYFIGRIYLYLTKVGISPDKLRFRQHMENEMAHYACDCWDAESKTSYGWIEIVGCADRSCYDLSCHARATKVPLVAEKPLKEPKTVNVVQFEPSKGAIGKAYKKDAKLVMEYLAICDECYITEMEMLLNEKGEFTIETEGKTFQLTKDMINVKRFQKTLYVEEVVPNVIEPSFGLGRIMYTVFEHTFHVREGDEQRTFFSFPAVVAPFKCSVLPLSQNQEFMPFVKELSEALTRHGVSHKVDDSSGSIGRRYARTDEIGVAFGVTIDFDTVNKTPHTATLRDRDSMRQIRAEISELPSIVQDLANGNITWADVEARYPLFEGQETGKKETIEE

[8] = target: T8, HeLa cell extract proteins (Homo sapiens, UniProt P61081); conditions: protein UBE2M; HeLa
T8 construct: endogenous in cells; host or cells: HeLa cell extract
T8 sequence (P61081 1-183): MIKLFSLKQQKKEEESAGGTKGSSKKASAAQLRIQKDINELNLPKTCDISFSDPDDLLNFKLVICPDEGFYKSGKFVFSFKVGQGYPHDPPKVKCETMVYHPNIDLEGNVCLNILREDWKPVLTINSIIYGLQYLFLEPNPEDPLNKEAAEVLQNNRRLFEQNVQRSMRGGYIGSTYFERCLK

[9] = target: T9, HeLa cell extract proteins (Homo sapiens, UniProt O00165); conditions: captured protein HAX1; HeLa
T9 construct: endogenous in cells; host or cells: HeLa cell extract

[10] = target: T10, HeLa cell extract proteins (Homo sapiens, UniProt P21266); conditions: protein GSTM3; HeLa
T10 construct: endogenous in cells; host or cells: HeLa cell extract
T10 sequence (P21266 1-225): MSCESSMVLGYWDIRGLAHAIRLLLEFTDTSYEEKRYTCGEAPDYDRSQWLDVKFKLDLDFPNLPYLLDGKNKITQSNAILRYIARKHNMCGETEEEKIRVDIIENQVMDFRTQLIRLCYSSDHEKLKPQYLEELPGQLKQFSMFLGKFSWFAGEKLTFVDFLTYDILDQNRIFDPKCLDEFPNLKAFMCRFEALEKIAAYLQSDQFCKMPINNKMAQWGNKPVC

[11] = HeLa, protein LOC284889 (MACROPHAGE MIGRATION INHIBITORY FACTOR)
[12] = HeLa, protein NCBP2 (NUCLEAR CAP-BINDING PROTEIN SUBUNIT 2)

T9 sequence (O00165 whole entry): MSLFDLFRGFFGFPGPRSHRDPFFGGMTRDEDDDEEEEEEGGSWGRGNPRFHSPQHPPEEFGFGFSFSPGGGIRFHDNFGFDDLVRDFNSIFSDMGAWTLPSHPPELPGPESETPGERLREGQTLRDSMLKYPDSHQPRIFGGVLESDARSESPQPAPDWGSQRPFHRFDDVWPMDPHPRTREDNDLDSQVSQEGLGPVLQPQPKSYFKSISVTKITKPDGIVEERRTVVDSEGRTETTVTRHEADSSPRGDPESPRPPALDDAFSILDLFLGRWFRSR

| Compound | fold changes relative to vehicle control [1, 11] | fold changes relative to vehicle control ([2]; protein BSG, HeLa) | fold changes relative to vehicle control ([3]; protein ETFA, HeLa) | fold changes relative to vehicle control [4, 12] | fold changes relative to vehicle control ([5]; HeLa, protein SCO2) | fold changes relative to vehicle control [6] | fold changes relative to vehicle control [7] | fold changes relative to vehicle control [8] | fold changes relative to vehicle control [9] | fold changes relative to vehicle control [10] | also measured |
| --- | --- | --- | --- | --- | --- | --- | --- | --- | --- | --- | --- |
| Nc1nc2c(c(=O)[nH]1)N(C=O)C(CNc1ccc(C(=O)N[C@@H](CCC(=O)O)C(=O)O)cc1)CN2 (some centres unmarked) [LEU, leucovorin] | 1.32 | 0.87 | 0.77 | 1.05 | 0.95 |  |  |  |  |  |  |
| Nc1nc2[nH]cc(CCc3ccc(C(=O)N[C@@H](CCC(=O)O)C(=O)O)cc3)c2c(=O)[nH]1 [PTX, pemetrexed] |  |  |  |  |  |  |  |  |  |  | fold changes relative to vehicle control [1]: 1.29; fold changes relative to vehicle control [2]: 0.88; fold changes relative to vehicle control [3]: 0.73; fold changes relative to vehicle control [4]: 0.91; fold changes relative to vehicle control [5]: 0.95 |
| CCCCCCOc1ccc(Cc2cnc(N)nc2N)cc1 [compound 1] |  |  |  |  |  | 1.11 | 1.14 | 1.2 | 0.92 | 1.22 |  |
| CCCCCCOc1cccc(Cc2cnc(N)nc2N)c1 [compound 2] |  |  |  |  |  | 1.52 | 1.74 | 1.71 | 1.1 | 1.72 |  |
| Nc1nc2cccc(-c3ccccc3)c2n1Cc1ccc(Cl)c(Cl)c1 [compound 3] |  |  |  |  |  | 0.99 | 0.93 | 0.83 | 1.13 | 0.93 |  |
| NCCOCCOCC(=O)Nc1nc2ncc(CNc3ccc(C(=O)NC(CCC(=O)O)C(=O)O)cc3)nc2c(=O)[nH]1 (centres unmarked) [compound 6] | 1.26 | 1.02 | 0.9 | 0.91 | 1.02 |  |  |  |  |  |  |
| NCCCNc1ccc(C(=O)NC(CCC(=O)O)C(=O)O)cc1 (centres unmarked) [compound 7] | 1.25 | 0.8 | 0.87 | 0.95 | 1.03 |  |  |  |  |  |  |
